Reference: PubChem BioAssay AID179 (DTP/NCI, 2004)
pEC50, pIC50: −log10 of the molar value. “And” between values parts separate entries of the source, which are not always exact repeats. Equal values may be shown once. The source made the active and inactive calls.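 The calls were made as follows: active = compounds giving half or more protection of infected cells from virus-caused growth loss, again on retest; inactive = the rest.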

Tested on: CEM cells HIV-1 protection, formazan growth assay
Experiment: NCI AIDS Antiviral Assay
Settings: for pIC50: measured here: growth of uninfected CEM cells
Summary of the method: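 Human CEM cells, uninfected and HIV-1-infected, exposed to five drug concentrations; growth measured by soluble formazan assay and scored as percent protection from infection, with protecting compounds retested.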

| Compound | pEC50 | pIC50 | outcome |
| --- | --- | --- | --- |
| S=c1sc2ccccc2n1CN1CCN(Cc2ccccc2)CC1 | < 3.70 | < 3.70 |  |
| S=c1nn[nH]n1-c1ccccc1.[Zn+2] | < 5.59 | < 5.59 |  |
| CC1=C(C(=O)CC(=O)C(=O)Nc2cccc(C)c2C)Sc2ccccc2N1 | < 3.48 | < 3.48 |  |
| CC12CCC(C)(O1)C1C(=O)N(c3nccs3)C(=O)C12 (stereo not drawn) | < 3.05 | < 3.05 |  |
| C=CCC1NCCC2=C1C(S(=O)(=O)c1ccc(C)cc1)c1ccccc12 (stereo not drawn) | < 3.70 | 4.98 |  |
| Cc1ccc2c3c(cnc2n1)C(=O)OCCN3C | < 3.70 | < 3.70 |  |
| CCc1cc2c(c3c1CCCC3=O)CC1(Cc3ccc(C(=O)OC)cc3C1)C2 (stereo not drawn) | < 3.70 | 4.44 |  |
| O=C(/C=C(\O)C(=O)O)/C=C(\O)c1ccccc1 | < 3.70 | < 3.70 |  |
| COc1ccc(-n2cnnc2-c2nsc3ccccc23)cc1 | < 4.07 | 4.26 |  |
| CCOC(=O)C(C)(c1c[nH]c2ccccc12)c1c[nH]c2ccccc12 | < 3.70 | 4.71 |  |
| O=P1(C(c2ccccc2)c2ccccc2)OC2CC(Cl)CC(C2)O1 (stereo not drawn) | < 5.14 | < 5.14 |  |
| COc1cc2c(cc1OCc1ccccc1)CNCC2 | < 3.10 | 3.84 |  |
| O=C1NN=C(c2c[nH]c3ccccc23)CC1NCc1ccccc1 (stereo not drawn) | < 3.70 | < 3.70 |  |
| O=C1C2C=CC1C1C(=O)OC(=O)C21 (stereo not drawn) |  |  | inactive |
| Fc1ccc(N=NN2CCCC2)cc1 | < 3.70 | 3.91 |  |
| CCOC(=O)c1c2ccc(/C=C/C(=O)OC)ccc-2c(C(=O)OCC)c1N | < 4.71 | < 4.71 |  |
| O=C(COc1ccc(/C=C/C(=O)c2ccc(Cl)cc2)cc1)Nc1c(Cl)cccc1Cl | < 4.39 | < 4.39 |  |
| O=C(CCc1ccccc1)ON1C(=S)C(c2ccccc2)(c2ccccc2)N=C1Sc1ccccc1 | < 3.70 | 4.59 |  |
| Nc1ncnc2c1ncn2CC1OCC(CO)O1 (stereo not drawn) | < 2.51 | 2.56 and 2.63 |  |
| CC(C)/C(Cl)=N\OC(=O)Nc1ccccc1F | < 3.70 | 5.10 |  |
| CCOc1ccc(N=Nc2ccc(/C=C/c3ccc(N=Nc4ccc(OCC)cc4)cc3S(=O)(=O)O)c(S(=O)(=O)O)c2)cc1 | 4.52 | < 3.70 and 3.71 |  |
| C=C(CCC(C)C1CCC2C3=C(C(=O)CC21C)C1(C)CCC(=O)[C@@H](C)C1CC3=O)C(C)C(=O)O (stereo partly drawn) | < 3.70 | 4.33 |  |
| N#CC(C(=O)C(N)=O)c1ccccc1Cl (stereo not drawn) | < 3.37 | < 3.37 |  |

| Compound | pEC50 | pIC50 | outcome |
| --- | --- | --- | --- |
| CN(C)CC1CCCC/C1=N\OC(=O)c1ccccc1 (stereo not drawn) |  |  | inactive |
| CC(C(=O)NCNC(=O)c1ccccc1)C(=O)NCc1ccccc1 (stereo not drawn) |  |  | inactive |
| COc1ccc(Oc2c(OC)cc(NCCCCCN3C(=O)c4ccccc4C3=O)c3ncccc23)cc1 | < 4.00 | < 4.00 |  |
| CSc1ccn(C2CC(F)C(CO)O2)c(=O)n1 (stereo not drawn) | 4.37 | < 3.70 |  |
| CCOC(=O)/C=C/c1ccc2c(c1)OC(c1ccc(O)c(OC)c1)C(CO)O2 (stereo not drawn) | < 3.89 | 4.61 |  |
| C[N+]12C=CC=C1C(N1CCCC1)c1scc(-c3ccccc3)c12 (stereo not drawn) | < 3.70 | 4.75 |  |
| CCCCN=C(N)N=C(N)N | < 3.70 | 4.03 |  |
| Cn1c(=O)cc(NCCc2ccccc2)[nH]c1=O | < 3.70 | 4.76 |  |
| CCOC(=O)c1sc(SC)nc1NC(=O)c1ccc(OC)cc1 | < 3.70 | < 3.70 |  |
| CSC(SC)(C(=O)O)c1cc(-c2c(Cl)cccc2Cl)no1 | < 4.09 | 4.15 |  |
| COc1ccc(/C=C(\C(C)=O)C(=O)Nc2ccccc2)cc1 | < 4.75 | < 4.75 |  |
| COc1ccc(/C(Cl)=C(\C#N)c2ccc(OC)c(OC)c2)cc1OC | < 3.70 | 4.23 |  |
| COC(=O)C(CCCN1C(=O)c2ccccc2C1=O)C(=O)OC |  |  | inactive |
| OCC1OC2OC3C(CO)OC(OC4C(CO)OC(OC5C(CO)OC(OC6C(CO)OC(OC7C(CO)OC(OC1C(O)C2O)C(O)C7O)C(O)C6O)C(O)C5O)C(O)C4O)C(O)C3O (stereo not drawn) (tested in a mixture with another compound) | < 3.70 | < 3.70 |  |
| O=S(=O)(O)c1ccc(OCCCCCCCCOc2ccc(S(=O)(=O)O)cc2)cc1 | < 4.84 | < 4.84 |  |
| COc1c(O)cc2c(c1O)C(=O)C1=C(CCCC1)C2=O | < 4.01 | 4.91 |  |
| Cc1ccc(/C=N\NC2c3cc(Cl)ccc3Nc3nc(=O)[nH]c(C)c32)cc1 (stereo not drawn) | < 3.70 | 3.92 |  |
| CCn1c(SCC(=O)N/N=C/c2ccccc2)nc2ccccc2c1=O | < 3.70 | 4.63 |  |
| CC(=O)NC(CCCNC(=O)NCCCl)C(=O)NCc1ccccc1 (stereo not drawn) | < 3.17 | < 3.17 |  |
| C=CCOC1=C2CC[C@H](O)[C@@]2(C)CCC1=O |  |  | inactive |
| CCOC(=O)c1c(Br)c(-c2ccc(OC)cc2)c(Br)n1C | < 3.70 | 4.90 |  |
| CCOC(=O)c1c(N)[nH]c(SSc2[nH]c(N)c(C(=O)OCC)c2C(=O)OCC)c1C(=O)OCC | < 3.70 | 6.38 |  |
| NC(=O)C(=CNC(=S)c1cccnc1)C(N)=O | < 3.70 | 4.13 |  |

| Compound | pEC50 | pIC50 | outcome |
| --- | --- | --- | --- |
| COc1ccc2c(c1OC)C(=O)O[C@@H]2[C@H]1c2c(cc3c(c2OC)OCO3)CCN1C | < 3.70 | 4.61 |  |
| CCN(CC)CCOc1ccc(/C(C#N)=C/c2ccc(OCCO)cc2)cc1 | < 3.70 | 4.68 |  |
| COc1ccc(/C=c2/sc3n(c2=O)C(c2ccccc2)C2(O)CCCCC2N=3)cc1 (stereo not drawn) | < 3.70 | < 3.70 |  |
| CC1=NN(C(=O)Cc2ccccc2)C(=O)/C1=C\c1ccccc1O | < 4.65 | < 4.65 |  |
| OC(C#CC(O)(c1ccccc1)c1ccccc1)(c1ccccc1)c1ccccc1 | < 3.70 | 4.96 |  |
| C=CC1=C(C)C2=NC1=CC1=NC(=CC3=C(C)C4=C(O)C(C(=O)OC)C(=C5NC(=C2)C(C)C5CCC(=O)OC/C=C(\C)CCCC(C)CCCC(C)CCCC(C)C)C4=N3)C(CC)=C1C (stereo not drawn) | < 4.00 | 5.67 |  |
| COC(=O)[C@@]1(O)CC(C)C=C1C=O (stereo partly drawn) | < 2.87 | 4.54 |  |
| O=C(/C=C/c1ccc([N+](=O)[O-])o1)N1CCN(Cc2ccccc2)CC1 | < 4.02 | 4.95 |  |
| O=C1CC2C(=O)N(Cc3ccccc3)C1C=C2S(=O)(=O)c1ccccc1 (stereo not drawn) |  |  | inactive |
| Cc1cn(C2CC(O)C(CN=[N+]=[N-])O2)c(=O)[nH]c1=O (stereo not drawn) | < 3.03 | < 3.03 |  |
| N/C(=N\N=C\c1ccc(C(F)(F)F)cc1)NO | < 3.37 | < 3.37 |  |
| NCCCN1CCN(CC(=O)O)CCN(CCCN)CCN(CC(=O)O)CC1 | < 3.70 | 5.36 |  |
| CCSSC12CCCN1C(=O)C(C)N(C)C2=O (stereo not drawn) | < 3.70 | 4.69 |  |
| CCCCCCCCCCCCCC(=O)CBr |  |  | inactive |
| Cn1c(=O)c2c(nc3n2CCCC(=O)N3CC(O)CCl)n(C)c1=O (stereo not drawn) | < 3.70 | 4.07 |  |
| COc1ccc2nc3c([N+](=O)[O-])ccc4c3c(c2c1)NCCN4C | < 4.00 | 6.29 |  |
| CC(=O)Nc1cc(=O)[nH]c2c1CCC2 |  |  | inactive |
| Cc1cc(C)c2nccc(NCCCN(C)C)c2c1[N+](=O)[O-] | < 3.70 | 4.37 |  |
| O=C(CNc1ccc([N+](=O)[O-])cc1)Nn1c(-c2ccccc2)nc2ccccc2c1=O | < 3.70 | 5.38 |  |
| Cc1c(NC(=S)NN)c(=O)n(-c2ccccc2)n1C | < 3.70 | < 3.70 |  |
| N#CNC1=NC(Cc2ccccc2)C(=O)N1CCc1c[nH]c2ccccc12 (stereo not drawn) | < 3.70 | 4.50 |  |
| CC(=O)c1ccc(NC(=O)/C(=N\NC(N)=O)C(C#N)CC(C)(C)C=O)cc1 (stereo not drawn) | < 3.31 | < 3.31 |  |
| COc1ccc(CNc2nc3cc(C(F)(F)F)ccc3nc2C)cc1OC | < 4.72 | 4.84 |  |

| Compound | pEC50 | pIC50 | outcome |
| --- | --- | --- | --- |
| CCOC(=S)SCC(=O)c1cccc([N+](=O)[O-])c1 |  |  | inactive |
| O=C1c2ccccc2C2(O)N(c3ccccc3)C(=S)N(c3ccccc3)C12O (stereo not drawn) | < 3.19 | 3.50 |  |
| O=P1(O)Cc2ccccc2-c2ccccc21 | < 3.70 | < 3.70 |  |
| N#C/C(=C/N1CCNC1=S)C(N)=O | < 3.70 | < 3.70 |  |
| CCCCc1ccc(Nc2nc(Cl)c3ncn(COCCOC(C)=O)c3n2)cc1 | < 3.70 | 4.86 |  |
| C=C(C)C(O)C(O)c1c(OC)ccc2ccc(=O)oc12 (stereo not drawn) | < 3.76 | < 3.76 |  |
| CCOc1cccc(C=Nc2ccccc2SSc2ccccc2N=Cc2cccc(OCC)c2O)c1O | < 4.00 | 5.29 |  |
| CC(C)c1nc2c(Cl)c3ncccc3cc2[nH]c1=O | < 4.00 | 4.40 |  |
| CC(C)C(OC(=O)c1cc(NC(=S)c2ccccc2)ccc1Cl)C(C)C | 6.36 | 4.93 |  |
| COC(=O)CCCC=C(c1cc(C)c(OC)c(C(=O)OC)c1)c1cc(C)c(OC)c(C(=O)OC)c1 | 5.62 | 4.05 |  |
| O=c1oc2ccccc2n1P(=O)(N1CCOCC1)N1CCOCC1 | < 3.60 | < 3.60 |  |
| C=C1CN(S(=O)(=O)c2ccc([N+](=O)[O-])cc2)CC(=C)CN(S(=O)(=O)c2ccc([N+](=O)[O-])cc2)C1 | < 3.70 | < 3.70 |  |
| CC(=O)OCC1OC(n2c(=O)n(-c3ccccc3)c(=O)c3cc(Br)cc(Br)c32)C(OC(C)=O)C(OC(C)=O)C1OC(C)=O (stereo not drawn) | < 4.86 | < 4.86 |  |
| O=C1C(=O)C(CN2CCOCC2)=C(N2CCOCC2)C(N2CCOCC2)=C1CN1CCOCC1 | < 3.70 | 4.11 |  |
| O=[N+]([O-])c1ccc(-c2csc(N=Nc3c(O)[nH]c4ccccc34)n2)cc1 | 3.85 | < 3.70 |  |
| CCC1(O)C(=O)OCc2c1cc1n(c2=O)Cc2cc3cc4c(cc3nc2-1)OCO4 (stereo not drawn) | < 7.00 | 8.25 |  |
| CC(=O)N(C)c1ccc(/C=C2\C=Cc3ccccc32)cc1 | < 4.31 | 4.91 |  |
| CC1(c2ccc3ccccc3c2)OC(=O)c2cccc(F)c21 (stereo not drawn) |  |  | inactive |
| O=[N+]([O-])c1ccc(NCCS(=O)(=O)O)c([N+](=O)[O-])c1 | < 3.10 | < 3.10 |  |
| Cc1ccc(-c2n[nH]c(=O)n2/N=C\c2ccccc2)cc1 | < 3.70 | 3.96 |  |
